Results on two molecules are retold here after patent US20230250417A1, “METHODS FOR DETECTING RNA TRANSLATION” (Eclipse Bioinnovations, Inc., priority 2021, published 2023).

The test system of one experiment is gene FUS. Description: Bead barcoded multiplexed RBP/RPS2 binding, genome track view (IGV) with normalized read counts. It is filed as cell-based, human. Conditions: cells treated with 200 nM Risdiplam for 2 hours vs DMSO control; FIG. 7. As for the experimental part:
FIG. 7 depicts an IGV screenshot of the gene FUS with normalized read counts for 7 different RBPs and the translation component protein RPS2. Two conditions are shown; one DMSO control and the other cells treated with 200 nM Risdiplam. […] This example illustrates a protocol for a bead barcoded experiment for detecting RNA modifications from cells with RBPs according to an embodiment of the disclosure. The buffers described below are the same as mentioned above with respect to Example 2 unless explicitly stated otherwise. First, Trypan blue stain (Thermo Fisher Scientific, cat. #15250061) or equivalent live cell counting assay was used to valuate cell viability. Next, cell viability was reviewed to be sure it was >95% to ensure intact RNA. Cells were grown to a proper confluence, in most cases grow cells to 75% confluence. Some cells were treated with 200 nM Risdiplam for 2 hours prior to harvesting. First, resuspend anti-rabbit Dynabeads by vortexing or pipetting up and down several times. Second, transfer 500 μL of beads (enough for 20 samples) into a 1.5 mL Eppendorf tube and place tube on DynaMag-2. Third, Remove the supernatant and wash beads thrice with 500 μL PBS, resuspending beads with each wash. Fourth, remove beads from magnet, resuspend beads in 500 μL PBS, add 1.65 μL DBCO-NHS (10 mM in DMSO), and rotate tube at room temperature for 1 hour. […]

Experiment [1] deals with TOP motif containing gene, GAPDH. Description: Ribo-ABC (oligo conjugated antibody) ribosome-bound RNA read counts, genome track view. It is filed as cell-based. Conditions: ribosomal proteins RPS2, RPS3, RPS14, FIG. 2 top panel. As for the experimental part:
(§1) Three different ribosomal proteins were used RPS2, RPS3, RPS14.
(§2) This example provides a protocol for a Ribo-ABC experiment according to an embodiment of the disclosure.
(§3) First, the tissue culture plate was placed on leveled ice or on a cooling block pre-chilled to 4° C. Second, the above (plate plus ice or cooling block) was placed into the UV cross-linker. Third, the tissue culture plate lid was removed for cross-linking. Fourth, cross-link at 254-nm UV with an energy setting of 400 mJoules/cm^2. Fifth, while keeping the cells on ice, a cell scraper (Corning, cat. #CLS3010-10EA) was used to scrape the plate. Sixth, the cells were transferred to a 15 mL conical tube. Seventh, the plate was washed once with 5 mL of chilled PBS and added to the same 15 mL tube. Eight, gently resuspended until the sample was homogeneous. Ninth, the 15 mL conical tube was centrifuged at 200×g for 3 minutes at 4° C. Tenth, the sample was aspirated and discarded supernatant. Eleventh, the desired amount of cells for flash freezing was resuspended in chilled PBS (typically 10×10^6 cells per mL). Twelfth, the sample was transferred into 1.5 mL LoBind tubes Tubes (typically 1 mL of 10×10^6 cells per mL). Thirteenth, the sample was spun down at 200×g for 3 minutes at 4° C. Fourteenth, the supernatant was aspirated, and the cell pellets were frozen quickly by submerging the 1.5 mL LoBind tubes in liquid nitrogen. […]

The subject of experiment [2] is non-TOP motif containing gene, PARP1. The description is as above. The class given is cell-based. Conditions: ribosomal proteins RPS2, RPS3, RPS14, FIG. 2 bottom panel. The procedure:
as §1, §2, §3

Entries after “also recorded” stand apart in the source; their conditions may differ.

On to `Cc1cn2nc(-c3cc(=O)n4cc(N5CCNC6(CC6)C5)ccc4n3)cc(C)c2n1` [Risdiplam], for which, in the experiment with gene FUS, the “change in binding on gene FUS (7 RBPs and RPS2) versus DMSO control” value is recorded as “a change in binding across the two conditions; also recorded: a difference observed between the two conditions”.
On to Torin, for which the “change in read counts of GAPDH upon Torin treatment” value in experiment [1] is recorded as “reduced read counts”. In experiment [2], the “change in read counts of PARP1 upon Torin treatment” value was “no change in read counts”.
